Test results reported in US20230015691A1, “PROPHYLACTIC OR THERAPEUTIC AGENT FOR NON-ALCOHOLIC STEATOHEPATITIS IN HUMANS” (MITSUBISHI TANABE PHARMA CORPORATION, priority 2019, published 2023).

Tests used:
[1] = Body weight change in NASH patients (clinical trial, 72 weeks); type: in vivo, human; conditions: 10 mg once daily; for Change from baseline/Weight, Mean (SD): NASH patients
Experimental: (§1) [Test Protocol] • Number of cases to be analyzed: 47 cases (placebo administration group: 23 cases; MT-3995 administration group: 24 cases) • The subjects were selected according to the following criteria.
Kleiner fibrosis classification: Stage 2 or Stage 3
(§2) • Pre-observation period (number of weeks): 10 weeks • Administration period (number of weeks): 72 weeks • Post-observation period (number of weeks): 8 weeks • Dosage and administration: MT-3995 administration group=once daily, 10 mg; placebo group=once-daily administration
Table 2 and FIG. 1 show the average amount of change in the body weight after the assignment, in the placebo group and the MT-3995 group. The body weight was measured at the time of the visit.

[2] = tested on: serum hyaluronic acid (HA); assay: Change in serum hyaluronic acid level (Chemilumi Hyaluronic Acid); type: in vivo, human; conditions: for Change from baseline/Hyaluronic Acid, LS Mean: serum, NASH patients, 10 mg once daily
Experimental: as §1, §2
Table 3 and FIG. 2 show the average amount of change in the serum hyaluronic acid level after the assignment. For measurement of the serum hyaluronic acid level, serum was prepared from blood collected from each patient on the day of the visit, according to a conventional method. The prepared serum was subjected to a test. For the measurement, Chemilumi Hyaluronic Acid (Siemens Healthcare Diagnostics K. K.) was used.

[3] = tested on: plasma-soluble Vascular Cell Adhesion Molecule-1 (sVCAM); assay: Change in plasma sVCAM-1 level (Human sVCAM-1/CD106 Quantikine ELISA Kit); type: in vivo; conditions: for Change from baseline/sVCAM-1, Mean: plasma, 10 mg once daily
Experimental: as §1, §2
Table 6-1 and FIG. 5-1 show the average amount of change in the plasma-soluble Vascular Cell Adhesion Molecule-1 (sVCAM) after the assignment. For measurement of the plasma sVCAM level, plasma was prepared from blood collected from each patient, according to a conventional method. The prepared plasma was subjected to a test. For the measurement, a Human sVCAM-1/CD106 Quantikine ELISA Kit (R&D Systems, Inc.) was used.
A stratified analysis was carried out for the subjects based on the presence or absence of complication with diabetes. DM represents the “group of patients complicated with diabetes”. A higher effect was found in the group of patients complicated with diabetes.
Further, a stratified analysis was carried out for the subjects based on the presence or absence of complication with hypertension. HP represents the “group of patients complicated with hypertension”. A higher effect was found in the group of patients complicated with hypertension.

liver stiffness = assay: Change in liver stiffness (Shear Wave Elastography); type: in vivo, human; conditions: for Change from baseline/Liver stiffness (Shear Wave Elastography), Mean (SD): NASH patients, 10 mg once daily
Experimental: as §1, §2
The liver stiffness after the assignment was measured using Shear Wave Elastography or Fibro scan. Table 7 and FIG. 6 show the average amount of change in the liver stiffness according to Shear Wave Elastography. Table 8 and FIG. 7 show the average amount of change in the liver stiffness according to Fibro scan.

## CC1(C)Oc2cc(NS(C)(=O)=O)ccc2N(c2ccc(F)cc2)C1=O [MT-3995]
[1]; 72 weeks
  Rate of body weight reduction versus placebo group: higher in the MT-3995 administration group than in the placebo group
[1]; Week 12
  Change from baseline/Weight, Mean (SD): −1.39 (1.55) kg
[1]; Week 24
  Change from baseline/Weight, Mean (SD): −1.73 (2.09) kg
[1]; Week 36
  Change from baseline/Weight, Mean (SD): −1.88 (2.99) kg
[1]; Week 48
  Change from baseline/Weight, Mean (SD): −2.15 (3.23) kg
[1]; Week 60
  Change from baseline/Weight, Mean (SD): −2.23 (3.25) kg
[1]; Week 72
  Change from baseline/Weight, Mean (SD): −2.21 (3.10) kg
[1]; from the beginning of the administration
  Body weight change: A decrease in the body weight was found
[2]; Weeks 24, 48, and 72 after the beginning of the administration
  Serum hyaluronic acid level versus placebo group: significantly lower than the level in the placebo group
[2]; Week 12
  Change from baseline/Hyaluronic Acid, LS Mean: -31.87 ng/mL
[2]; Week 24
  Change from baseline/Hyaluronic Acid, LS Mean: -39.02 ng/mL
[2]; Week 48
  Change from baseline/Hyaluronic Acid, LS Mean: -47.23 ng/mL
[2]; Week 72
  Change from baseline/Hyaluronic Acid, LS Mean: -32.02 ng/mL
[2]; throughout the treatment period
  Serum hyaluronic acid level versus beginning of the administration: lower than the level observed at the beginning of the administration
[3]; Week 24, Week 48, and Week 72
  Plasma sVCAM value versus placebo group: lower than the value in the placebo group
[3]; from Week 24 after the beginning of the administration
  Plasma sVCAM values versus beginning of the administration: lower plasma sVCAM values
[3]; DM (patients complicated with diabetes), Week 12
  Change from baseline/sVCAM-1, Mean: -6.58 ng/mL
[3]; DM (patients complicated with diabetes), Week 24
  Change from baseline/sVCAM-1, Mean: -47.08 ng/mL
[3]; DM (patients complicated with diabetes), Week 48
  Change from baseline/sVCAM-1, Mean: -62.73 ng/mL
[3]; DM (patients complicated with diabetes), Week 72
  Change from baseline/sVCAM-1, Mean: -112.27 ng/mL
[3]; HP (patients complicated with hypertension), Week 12
  Change from baseline/sVCAM-1, Mean: 5.69 ng/mL
[3]; HP (patients complicated with hypertension), Week 24
  Change from baseline/sVCAM-1, Mean: -44.06 ng/mL
[3]; HP (patients complicated with hypertension), Week 48
  Change from baseline/sVCAM-1, Mean: -70.29 ng/mL
[3]; HP (patients complicated with hypertension), Week 72
  Change from baseline/sVCAM-1, Mean: -89.57 ng/mL
[3]; all NASH patients, Week 12
  Change from baseline/sVCAM-1, Mean: 13.8 ng/mL
[3]; all NASH patients, Week 24
  Change from baseline/sVCAM-1, Mean: -43.8 ng/mL
[3]; all NASH patients, Week 48
  Change from baseline/sVCAM-1, Mean: -44.7 ng/mL
[3]; all NASH patients, Week 72
  Change from baseline/sVCAM-1, Mean: -74.7 ng/mL
[3]; non-DM patients, Week 12
  Change from baseline/sVCAM-1, Mean: 34.25 ng/mL
[3]; non-DM patients, Week 24
  Change from baseline/sVCAM-1, Mean: -40.58 ng/mL
[3]; non-DM patients, Week 48
  Change from baseline/sVCAM-1, Mean: -26.64 ng/mL
[3]; non-DM patients, Week 72
  Change from baseline/sVCAM-1, Mean: -37.18 ng/mL
[3]; non-HP patients, Week 12
  Change from baseline/sVCAM-1, Mean: 30.13 ng/mL
[3]; non-HP patients, Week 24
  Change from baseline/sVCAM-1, Mean: -43.38 ng/mL
[3]; non-HP patients, Week 48
  Change from baseline/sVCAM-1, Mean: 0.13 ng/mL
[3]; non-HP patients, Week 72
  Change from baseline/sVCAM-1, Mean: -48.75 ng/mL
Liver stiffness; Week 12
  Change from baseline/Liver stiffness (Shear Wave Elastography), Mean (SD): −4.57 (2.48) kPa
Liver stiffness; Week 24
  Change from baseline/Liver stiffness (Shear Wave Elastography), Mean (SD): −5.63 (3.23) kPa
Liver stiffness; Week 48
  Change from baseline/Liver stiffness (Shear Wave Elastography), Mean (SD): −4.90 (4.38) kPa
Liver stiffness; Week 72
  Change from baseline/Liver stiffness (Shear Wave Elastography), Mean (SD): −6.00 (5.23) kPa
Liver stiffness; Shear Wave Elastography, throughout the treatment period
  Liver stiffness versus beginning of the administration: lower than the value observed at the beginning of the administration
